Molecular target: wild type c-kit (Homo sapiens (Human), UniProt P10721)
Experiment: PathScan phospho c-kit (Tyr719) sandwich ELISA in SCF-stimulated M-07e cells (pKIT assay)
Assay type: cell-based
Conditions: ELISA assay (values not marked *)
From the text: The ability of compounds of the disclosure (described herein as test compounds) to inhibit autophosphorylation of wild type c-kit was measures using either a PathScan phospho c-kit (Tyr719) sandwich ELISA (CST #7298) or a Phospho c-Kit (Tyr721) Assay Whole Cell Lysate Kit (MSD: 515DPD/catalog number K15119D-2).
For the PathScan phospho c-kit (Tyr719) sandwich ELISA: M-07e cells were resuspended at 2×10^6 cells/mL in phenol red free, serum-free, GM-CSF-free Iscove's Modified Dulbecco's Medium (IMDM) media with 1% Penicillin-Streptomycin. The cells were then dispensed into the wells of a U-bottom, 96-well plate at 50 uL per well using a multichannel pipet. The plate was allowed to incubate at 37° C. in a humidified tissue culture incubator for 4 hours.
After 4 hours of incubation, each well was dosed with 6.25 uL of test compound at a final DMSO concentration of 0.25% for 60 min at 37° C. to generate an 8-point dose concentration series of test compounds in duplicate. Cells were then incubated for 1 hour at 37° C. in a humidified tissue culture incubator. Next, human SCF at 500 ng/mL was added to the appropriate wells at 6.25 uL/well and the plate was shaken at 450 rpm at room temperature for 10 minutes. AlphaLISA 5× Lysis Buffer supplemented with 1× protease and phosphatase inhibitor was then added at 16 uL/well. The plate was sealed with an adherent cover and shaken at 4° C. at 600 rpm for 30 minutes. After this period of lysis, the plate was stored at −80° C.
When the 96-well plate containing M07e lysates was ready to be processed, the plate was brought to room temperature and 40 μl from each well was transferred to the wells of a PathScan Phospho-c-Kit (Tyr719) Sandwich ELISA plate (CST, Catalog #7298). The ELISA plate was sealed with an adherent cover and incubated for 2 hours at 37° C. Next, the wells were washed 4 times with the provided 1× Wash Buffer, and 100 uL/well of reconstituted Detection Antibody was added to each well, the plate sealed with an adherent cover, and incubated at 37° C. for 1 hour. The wash procedure was repeated and 100 uL/well of reconstituted HRP-Linked secondary antibody was added. The plate was sealed with an adherent cover and incubated at 37° C. for 1 hour. The wash procedure was repeated and 100 uL/well of TMB Substrate was added. The plate was incubated for 10 minutes at room temperature or until the positive reaction elicited a blue color in the appropriate wells. 100 uL/well of STOP solution was added and shaken gently for a few seconds a microplate reader or conventional spectrophotometer e.g., a Perkin Elmer Envision multimode plate reader, part #2105-0010.
An IC50 was calculated using a 4-parameter logistic nonlinear regression.

wild type c-kit, sequence (P10721 26-976): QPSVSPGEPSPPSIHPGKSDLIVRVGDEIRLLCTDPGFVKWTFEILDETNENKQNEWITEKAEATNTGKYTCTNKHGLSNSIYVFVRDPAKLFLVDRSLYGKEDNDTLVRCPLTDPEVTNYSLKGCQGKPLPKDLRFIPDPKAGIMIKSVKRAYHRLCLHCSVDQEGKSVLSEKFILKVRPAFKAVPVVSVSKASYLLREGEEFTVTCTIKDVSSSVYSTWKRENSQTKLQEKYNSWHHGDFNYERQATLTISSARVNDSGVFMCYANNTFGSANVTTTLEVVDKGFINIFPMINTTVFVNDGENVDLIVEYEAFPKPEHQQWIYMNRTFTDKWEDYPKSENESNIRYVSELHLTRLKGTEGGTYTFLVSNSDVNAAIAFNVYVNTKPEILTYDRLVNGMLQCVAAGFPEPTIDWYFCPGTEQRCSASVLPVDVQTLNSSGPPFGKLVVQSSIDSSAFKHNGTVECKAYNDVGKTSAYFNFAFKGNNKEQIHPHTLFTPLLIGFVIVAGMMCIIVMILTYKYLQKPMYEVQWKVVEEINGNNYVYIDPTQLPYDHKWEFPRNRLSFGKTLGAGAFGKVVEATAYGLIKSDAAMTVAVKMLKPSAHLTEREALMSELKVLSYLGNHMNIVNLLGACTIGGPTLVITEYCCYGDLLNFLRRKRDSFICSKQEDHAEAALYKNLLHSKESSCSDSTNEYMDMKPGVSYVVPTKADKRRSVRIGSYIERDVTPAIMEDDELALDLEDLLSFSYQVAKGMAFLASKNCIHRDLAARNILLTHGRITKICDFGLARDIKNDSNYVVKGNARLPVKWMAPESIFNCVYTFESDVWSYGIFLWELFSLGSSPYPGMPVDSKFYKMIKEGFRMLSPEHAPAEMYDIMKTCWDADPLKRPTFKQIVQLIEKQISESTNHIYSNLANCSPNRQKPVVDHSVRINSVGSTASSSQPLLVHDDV

IC50 | Compound
0.0004 µM | Cc1nn([C@@H](C)[C@H](C)O)cc1-c1ccn2ncc(C(=O)Nc3cc(-c4nnn(C5CC5)n4)c(F)cc3Cl)c2c1 (single isomer, unassigned) [Example 288, N-(2-chloro-5-(2-cyclopropyl-2H-tetrazol-5-yl)-4-fluorophenyl)-5-(1-((2S,3S)-3-hydroxybutan-2-yl)-3-methyl-1H-pyrazol-4-yl)pyrazolo[1,5-a]pyridine-3-carboxamide or N-(2-chloro-5-(2-cyclopropyl-2H-tetrazol-5-yl)-4-fluorophenyl)-5-(1-((2R,3R)-3-hydroxybutan-2-yl)-3-methyl-1H-pyrazol-4-yl)pyrazolo[1,5-a]pyridine-3-carboxamide]
0.0004 µM | Cc1nn(C[C@@H](C)O)cc1-c1ccn2ncc(C(=O)Nc3cc(-c4nnn(C5CC5)n4)c(F)cc3Cl)c2c1 [Example 281, (R)—N-(2-chloro-5-(2-cyclopropyl-2H-tetrazol-5-yl)-4-fluorophenyl)-5-(1-(2-hydroxypropyl)-3-methyl-1H-pyrazol-4-yl)pyrazolo[1,5-a]pyridine-3-carboxamide]
0.0538 µM | COC[C@@H](C)Nc1ccn2ncc(C(=O)Nc3cc(-c4nnn(C5CN(C(=O)OC)C5)n4)ccc3C)c2c1 [Example 135, methyl (R)-3-(5-(3-(5-((1-methoxypropan-2-yl)amino)pyrazolo[1,5-a]pyridine-3-carboxamido)-4-methylphenyl)-2H-tetrazol-2-yl)azetidine-1-carboxylate]
0.0119 µM | Cc1ccc(-c2nnn([C@H]3C[C@H](C(F)(F)F)C3)n2)cc1NC(=O)c1cnn2ccc(NCCO)cc12 [Example 121, 5-((2-hydroxyethyl)amino)-N-(2-methyl-5-(2-((1r,3r)-3-(trifluoromethyl)cyclobutyl)-2H-tetrazol-5-yl)phenyl)pyrazolo[1,5-a]pyridine-3-carboxamide or 5-((2-hydroxyethyl)amino)-N-(2-methyl-5-(2-((1s,3s)-3-(trifluoromethyl)cyclobutyl)-2H-tetrazol-5-yl)phenyl)pyrazolo[1,5-a]pyridine-3-carboxamide]
0.0006 µM | COC[C@H](O)Cn1cc(-c2ccn3ncc(C(=O)Nc4cc(-c5nnn(C6CC6)n5)c(F)cc4Cl)c3c2)c(C)n1 [Example 279, (R)—N-(2-chloro-5-(2-cyclopropyl-2H-tetrazol-5-yl)-4-fluorophenyl)-5-(1-(2-hydroxy-3-methoxypropyl)-3-methyl-1H-pyrazol-4-yl)pyrazolo[1,5-a]pyridine-3-carboxamide]
0.0124 µM | COCCNc1ccn2ncc(C(=O)Nc3cc(-c4nnn(C5CN(C(=O)OC)C5)n4)ccc3F)c2c1 [Example 115, methyl 3-(5-(4-fluoro-3-(5-((2-methoxyethyl)amino)pyrazolo[1,5-a]pyridine-3-carboxamido)phenyl)-2H-tetrazol-2-yl)azetidine-1-carboxylate]
0.0227 µM | [2H]C([2H])([2H])c1ccc(-c2nnn(C3CN(C(=O)OC)C3)n2)cc1NC(=O)c1cnn2ccc(NCCOC)cc12 [Example 118, methyl 3-(5-(3-(5-((2-methoxyethyl)amino)pyrazolo[1,5-a]pyridine-3-carboxamido)-4-(methyl-d3)phenyl)-2H-tetrazol-2-yl)azetidine-1-carboxylate]
0.0004 µM | Cc1cc(F)c(-c2nnn(C3CC3)n2)cc1NC(=O)c1cnn2ccc(-c3cn(C[C@@H](O)C(C)(C)O)nc3C3CC3)cc12 [Example 259, (R)-5-(3-cyclopropyl-1-(2,3-dihydroxy-3-methylbutyl)-1H-pyrazol-4-yl)-N-(5-(2-cyclopropyl-2H-tetrazol-5-yl)-4-fluoro-2-methylphenyl)pyrazolo[1,5-a]pyridine-3-carboxamide]

Further lines, the compound ahead of its results:

Compound | IC50
Cc1ccc(-c2nnn(C3CN(S(=O)(=O)CC4CCC4)C3)n2)cc1NC(=O)c1cnn2ccccc12 [Example 180, N-(5-(2-(1-((cyclobutylmethyl)sulfonyl)azetidin-3-yl)-2H-tetrazol-5-yl)-2-methylphenyl)pyrazolo[1,5-a]pyridine-3-carboxamide] | 0.0134 µM
COC(=O)N1CC(n2nnc(-c3ccc(C)c(NC(=O)c4cnn5ccc(NCC(F)F)cc45)c3)n2)C1 [Example 131, methyl 3-(5-(3-(5-((2,2-difluoroethyl)amino)pyrazolo[1,5-a]pyridine-3-carboxamido)-4-methylphenyl)-2H-tetrazol-2-yl)azetidine-1-carboxylate] | 0.049 µM
COC(=O)N1CC(c2cnn(-c3ccc(C)c(NC(=O)c4cnn5ccc(N6CCN(C7COC7)CC6)cc45)c3)n2)C1 [Example 83, methyl 3-(2-(4-methyl-3-(5-(4-(oxetan-3-yl)piperazin-1-yl)pyrazolo[1,5-a]pyridine-3-carboxamido)phenyl)-2H-1,2,3-triazol-4-yl)azetidine-1-carboxylate] | 0.0504 µM
Cc1ccc(-n2ncc(C3CC(F)(F)C3)n2)cc1NC(=O)c1cnn2ccccc12 [Example 161, N-(5-(4-(3,3-difluorocyclobutyl)-2H-1,2,3-triazol-2-yl)-2-methylphenyl)pyrazolo[1,5-a]pyridine-3-carboxamide] | 0.009 µM
COC(=O)N1CC(n2nnc(-c3ccc(C)c(NC(=O)c4cnn5ccc(N6CCN(C7COC7)CC6)cc45)c3)n2)C1 [Example 74, methyl 3-(5-(4-methyl-3-(5-(4-(oxetan-3-yl)piperazin-1-yl)pyrazolo[1,5-a]pyridine-3-carboxamido)phenyl)-2H-tetrazol-2-yl)azetidine-1-carboxylate] | 0.0639 µM
COC(=O)N1CC(n2nnc(-c3ccc(C)c(NC(=O)c4cnn5ccccc45)c3)n2)C1 [Example 191, methyl 3-(5-(4-methyl-3-(pyrazolo[1,5-a]pyridine-3-carboxamido)phenyl)-2H-tetrazol-2-yl)azetidine-1-carboxylate] | 0.0413 µM
[2H]C([2H])([2H])OCCNc1ccn2ncc(C(=O)Nc3cc(-c4nnn(C5CN(C(=O)OC)C5)n4)ccc3C)c2c1 [Example 100, methyl 3-(5-(3-(5-((2-(methoxy-d3)ethyl)amino)pyrazolo[1,5-a]pyridine-3-carboxamido)-4-methylphenyl)-2H-tetrazol-2-yl)azetidine-1-carboxylate] | 0.0338 µM
COC(=O)N1CC(n2nnc(-c3ccc(C)c(NC(=O)c4cnn5ccc(N[C@H]6CCOC6)cc45)c3)n2)C1 [Example 136, methyl (S)-3-(5-(4-methyl-3-(5-((tetrahydrofuran-3-yl)amino)pyrazolo[1,5-a]pyridine-3-carboxamido)phenyl)-2H-tetrazol-2-yl)azetidine-1-carboxylate] | 0.0762 µM
Cc1ccc(-n2nnc([C@H]3CC3(F)F)n2)cc1NC(=O)c1cnn2ccc(-c3cnn(CCO)c3)cc12 (single isomer, unassigned) [Example 211, (R)-N-(5-(5-(2,2-difluorocyclopropyl)-2H-tetrazol-2-yl)-2-methylphenyl)-5-(1-(2-hydroxyethyl)-1H-pyrazol-4-yl)pyrazolo[1,5-a]pyridine-3-carboxamide or (S)-N-(5-(5-(2,2-difluorocyclopropyl)-2H-tetrazol-2-yl)-2-methylphenyl)-5-(1-(2-hydroxyethyl)-1H-pyrazol-4-yl)pyrazolo[1,5-a]pyridine-3-carboxamide] | 0.0026 µM
Cc1ccc(-c2nnn(CC3CC3)n2)cc1NC(=O)c1cnn2ccccc12 [Example 7, N-(5-(2-(cyclopropylmethyl)-2H-tetrazol-5-yl)-2-methylphenyl)pyrazolo[1,5-a]pyridine-3-carboxamide] | 0.0136 µM
O=C(Nc1cc(-c2nnn(CC34COC(C3)C4)n2)ccc1Cl)c1cnn2ccccc12 [Example 18, N-(5-(2-((2-oxabicyclo[2.1.1]hexan-4-yl)methyl)-2H-tetrazol-5-yl)-2-chlorophenyl)pyrazolo[1,5-a]pyridine-3-carboxamide] | 0.0296 µM
COCCNc1cc2c(C(=O)Nc3cc(-c4nnn(C5CN(C(=O)OC)C5)n4)ccc3C)cnn2cc1C [Example 144, methyl 3-(5-(3-(5-((2-methoxyethyl)amino)-6-methylpyrazolo[1,5-a]pyridine-3-carboxamido)-4-methylphenyl)-2H-tetrazol-2-yl)azetidine-1-carboxylate] | 0.0234 µM
COC(=O)N1CC(n2nnc(-c3ccc(C)c(NC(=O)c4cnn5ccc(N6CCC(F)(F)CC6)cc45)c3)n2)C1 [Example 147, methyl 3-(5-(3-(5-(4,4-difluoropiperidin-1-yl)pyrazolo[1,5-a]pyridine-3-carboxamido)-4-methylphenyl)-2H-tetrazol-2-yl)azetidine-1-carboxylate] | 0.0316 µM

— patent publication US20240262826A1, “WILD TYPE KIT INHIBITORS” (Blueprint Medicines Corporation, priority 2022, published 2024)
